Laboratory results reported in patent US10548894B2, “Combination therapy” (Array BioPharma Inc., priority 2013, dated 2020).

Assays:
[1] = Clinical dose finding and tolerability (RP2D/MTD) in patients; type: in vivo
Description: The selection of the starting dose follows the ICH S9 guidelines for choosing a starting a dose for a first-in-human trial conducted in patients with cancer, and is shown in Table 6-2.
Table 3 describes the starting doses and the provisional dose levels of study treatments for the combinations that may be evaluated during this trial. Additional dose levels not currently specified may be enrolled and additional patients may be enrolled at a dose level already tested if such changes are deemed necessary to provide optimal safety and tolerability, pharmacokinetic, and pharmacodynamic data.

[2] = tested on: HMEX1906 primary melanoma model (HMEX1906-R5); test: Efficacy in HMEX1906-R5 primary melanoma model resistant to Compound of Formula (I); type: in vivo; conditions: PO; Compound C 250 mg/kg qd×21; Compound of Formula (I) 5 mg/kg bid×21
Method: Objective: To evaluate the efficacy of the combination of the Compound of Formula (I) and the CDK 4 inhibitor Compound C in the HMEX1906 primary melanoma model that is grown in the presence of and is resistant to 5 mg/kg the Compound of Formula (I) (HMEX1906-R5)
Drug formulation: Compound C is formulated in 0.5% MC/0.5% Tween80 and the Compound of Formula (I) is formulated in 20% PEG300/3% ETPGS.
Tumors are chopped/minced into cell line like suspension (tumors homogenized). 7 mL of matrigel added and 1.5 mL of HBSS. Suspension warmed in palm until Matrigel is thick and implanted with a 18G needle s.c right flank of female nude mice.
The mice were assigned to the following groups at 18 days post implant with an average tumor volume of 266 mm^3 and average body weight of 25 grams.
Groups: 10 mice/group, route PO, dose volume 0.2 mL
Group 1: Vehicle, 0 mg/kg bid×14
Group 2: Compound C, 250 mg/kg qd×21
Group 3: Compound of Formula (I), 5 mg/kg bid×21
Group 4: Compound C 250 mg/kg qd×21+Compound of Formula (I) 5 mg/kg bid×21

Compound | maximum tolerated dose (MTD) ([1]; currently tested at the 900 mg QD dose level) | Mean change of body weight [2] | Mean change of tumor volume [2] | Mean change of tumor volume vs control (T/C) [2] [%] | Survival (Survivors/Total) [2] | MTD ([1]; QD) [mg]
CN(C)C(=O)c1cc2cnc(Nc3ccc(N4CCNCC4)cn3)nc2n1C1CCCC1 [Compound C] | has not been achieved | 5.3 ± 1.4 % ± SEM | 86 ± 26 mm3 ± SEM | 4 | 10/10 | –
Nc1cc(C(F)(F)F)c(-c2cc(N3CCOCC3)nc(N3CCOCC3)n2)cn1 [Compound F, 5-(2,6-di-morpholin-4-yl-pyrimidin-4-yl)-4-trifluoromethyl-pyridin-2-ylamine] | – | – | – | – | – | 100
